Values of other authors as cited in US20090317487A1, “KITS FOR PREVENTION AND TREATMENT OF RHINITIS” (priority 2006, published 2009).

Tested on: infectious rhinitis (common cold)
Details: patients; literature studies (Mossad 1996, Prasad 2000, Farr 1987)

For `CC(=O)[O-].CC(=O)[O-].[Zn+2]` [zinc acetate], the “effect on severity and/or duration of infectious rhinitis (common cold)” value is listed as “reduced duration of infection”.
For `[Zn]` [zinc], the “effect on severity and/or duration of infectious rhinitis (common cold)” value is listed as “significant effect on the severity and duration of infectious rhinitis”.
